Test results reported in article PMC8829872 (Cancer chemotherapy and pharmacology, 2022).
Read-outs that look alike come from different tables or passages of the source.

What was measured:
[1] = Unified compartmental PK model (ADAPT5); parameters: species or system mice; conditions: for bioavailability: Balb/c, mouse, plasma, read-out: Model F (compartmental bioavailability)
Description: A unified compartmental PK model was developed using ADAPT5 [28] to fit the data, […]. Naïve-pooled concentration-time data from each study was used to estimate PK parameters that were shared between each treatment group. Model performance was determined and reported using parameter CV%, R^2, AIC (Akaike information criterion), as well as visually inspected with standardized residual plots. […] The amount of drug ultimately collected in this compartment allowed for calculation of the bioavailability. The developed model was then used to simulate expected plasma concentrations in the extensive PK study. Separately, tumor and plasma time concentration data from the extensive PK study was used to extend this model to add an uncoupled tumor compartment.

[2] = Extensive tissue distribution study in CT26 tumor-bearing mice; type: in vivo, Balb/c mice; conditions: for Kp: oral, 75 mg/kg
Description: Mice were injected subcutaneously on the right flank with 1x10^6 CT26 cells, a murine colorectal carcinoma cell line from BALB/c mice,obtained from ATCC (Manassas, VA). Cells were cultured in RPMI-1640 medium with L-glutamine (BioWhittaker Inc., Walkersville, MD), containing 10% heat-inactivated fetal bovine serum and 100 units of penicillin/mL and 100 μg/mL of streptomycin (Biofluids, BioSource, Rockville, MD) in an incubator with 95% air, 5% CO2, and 95% humidity at 37 °C. Cells were verified and checked for mycoplasm by IDEXX BioAnalytics (Westbrook, ME). Implantation and tumor growth were monitored twice weekly with a digital caliper. When tumors were approximately 200 mm^3, mice were stratified into time groups (N=3) primarily using body weight and secondarily using tumor size. Mice were administered 75 mg/kg PO through oral gavage. […] Bone marrow was obtained by flushing both femurs from each mouse with PBS, followed by centrifugation at 12,000 x g and removal of the supernatant. Protein analysis of the resuspended pellet was conducted using the Bio-Rad protein assay following the manufacturer’s instructions with bovine serum albumin as the standard. Blood was processed to obtain plasma and urine and feces were collected as described above.
For tissue and tumor analysis, samples were homogenized with 3 parts PBS (v/g) and further diluted with control plasma and concentrations determined from calibration curves prepared in control plasma.

[3] = extensive PK study, model with uncoupled tumor compartment
[4] = non-linear model, dose linearity and bioavailability studies
[5] = Balb/c, mouse, 75 mg/kg PO-ext, plasma

SMILES: C[C@@H]1COCCN1c1cc(C2([S@](C)(=N)=O)CC2)nc(-c2cc[nH]c3nccc2-3)n1 [AZD6738]
- bioavailability ([1]; 2 mg/kg PO): 40.4%
- bioavailability ([1]; 7.5 mg/kg PO): 61.5%
- bioavailability ([1]; 20 mg/kg PO): 80.4%
- bioavailability ([1]; 75 mg/kg PO): 90.8%
- Ka (fixed to dose linearity model estimate) [1, 3]: 0.234 min⁻¹
- Kct (model estimate) [1, 3]: 0.325 min⁻¹
- Ktc (model estimate) [1, 3]: 0.0537 min⁻¹
- Vc (model estimate) [1, 3]: 5.04 L/kg
- Ka (model estimate) [1, 4]: 0.234 min⁻¹
- Km (model estimate, pre-systemic saturable efflux/metabolism) [1, 4]: 157 ng
- Kna (model estimate) [1, 4]: 0.0120 min⁻¹
- Vc (model estimate) [1, 4]: 1.91 L/kg
- Vmax (model estimate, pre-systemic saturable efflux/metabolism) [1, 4]: 1238 ng/min
- Vp (model estimate) [1, 4]: 2.61 L/kg
- Cl ([2]; 75 mg/kg PO-ext): 37.3 mL/min/kg
- Vd ([2]; 75 mg/kg PO-ext): 5.66 L/kg
- 0-24h urine ([2]; 75 mg/kg PO-ext, unaltered drug): 3.19 % dose
- 0-24h feces ([2]; 75 mg/kg PO-ext, unchanged drug): 8.58 % dose
- AUC0-∞ ([2]; 75 mg/kg PO, Plasma): 2,371 (185) μg/mL•min
- Cmax ([2]; 75 mg/kg PO, Plasma): 14.1 (1.7) μg/mL
- Tmax ([2]; 75 mg/kg PO, Plasma): 15 min
- AUC(0-t) ([2]; 75 mg/kg PO, Plasma, 0-1440 min): 2,371 (185) μg/mL•min
- Kp ([2]; Balb/c, mouse, bone marrow / plasma, 75 mg/kg PO, Bone Marrow to corresponding plasma AUC (0-360), read-out: Partition Coefficient): 4.6
- Kp ([2]; Balb/c, mouse, brain, 75 mg/kg PO, Brain to corresponding plasma AUC (0-960), read-out: Partition Coefficient): ~0.05
- Kp ([2]; Balb/c, mouse, draining lymph node / plasma, 75 mg/kg PO, Draining Lymph Node to plasma AUC, read-out: Partition Coefficient): 0.792
- Kp ([2]; Balb/c, mouse, esophagus / plasma, 75 mg/kg PO, Esophagus to plasma AUC, read-out: Partition Coefficient): 3.27
- Kp ([2]; Balb/c, mouse, fat, 75 mg/kg PO, Fat to plasma AUC, read-out: Partition Coefficient): 0.412
- Kp ([2]; Balb/c, mouse, kidney / plasma, 75 mg/kg PO, Kidneys to plasma AUC, read-out: Partition Coefficient): 2.77
- AUC(0-inf) ([2]; Balb/c, mouse, kidney, 75 mg/kg PO, Kidneys): 109000 ng·h/mL
- AUC(0-t) ([2]; Balb/c, mouse, kidney, 75 mg/kg PO, Kidneys, 0-1440 min, read-out: AUC0-t (converted)): 109000 ng·h/mL
- Cmax ([2]; Balb/c, mouse, kidney, 75 mg/kg PO, Kidneys, read-out: Cmax): 39200 ng/mL
- Tmax ([2]; Balb/c, mouse, kidney, 75 mg/kg PO, Kidneys, read-out: Tmax (converted)): 15 min
- Kp ([2]; Balb/c, mouse, liver / plasma, 75 mg/kg PO, Liver to plasma AUC, read-out: Partition Coefficient): 7.42
- AUC(0-inf) ([2]; Balb/c, mouse, lung, 75 mg/kg PO, Lungs): 42100 ng·h/mL
- AUC(0-t) ([2]; Balb/c, mouse, lung, 75 mg/kg PO, Lungs, 0-1440 min, read-out: AUC0-t (converted)): 42100 ng·h/mL
- Cmax ([2]; Balb/c, mouse, lung, 75 mg/kg PO, Lungs, read-out: Cmax): 17400 ng/mL
- Tmax ([2]; Balb/c, mouse, lung, 75 mg/kg PO, Lungs, read-out: Tmax (converted)): 15 min
- Kp ([2]; Balb/c, mouse, non-draining lymph node / plasma, 75 mg/kg PO, Non-draining Lymph Node to plasma AUC, read-out: Partition Coefficient): 0.983
- Kp ([2]; Balb/c, mouse, red blood cells (RBC) / plasma, 75 mg/kg PO, RBC to plasma AUC, read-out: Partition Coefficient): 0.701
- AUC(0-inf) ([2]; Balb/c, mouse, red blood cells (RBC), 75 mg/kg PO, RBC): 27700 ng·h/mL
- AUC(0-t) ([2]; Balb/c, mouse, red blood cells (RBC), 75 mg/kg PO, RBC, 0-1440 min, read-out: AUC0-t (converted)): 27700 ng·h/mL
- Cmax ([2]; Balb/c, mouse, red blood cells (RBC), 75 mg/kg PO, RBC, read-out: Cmax): 13200 ng/mL
- Tmax ([2]; Balb/c, mouse, red blood cells (RBC), 75 mg/kg PO, RBC, read-out: Tmax (converted)): 15 min
- AUC(0-inf) ([2]; Balb/c, mouse, skeletal muscle, 75 mg/kg PO, Muscle): 41200 ng·h/mL
- AUC(0-t) ([2]; Balb/c, mouse, skeletal muscle, 75 mg/kg PO, Muscle, 0-1440 min, read-out: AUC0-t (converted)): 41200 ng·h/mL
- Cmax ([2]; Balb/c, mouse, skeletal muscle, 75 mg/kg PO, Muscle, read-out: Cmax): 12500 ng/mL
- Tmax ([2]; Balb/c, mouse, skeletal muscle, 75 mg/kg PO, Muscle, read-out: Tmax (converted)): 15 min
- Kp ([2]; Balb/c, mouse, small intestine / plasma, 75 mg/kg PO, Small Intestine to plasma AUC, read-out: Partition Coefficient): 8.39
- Kp ([2]; Balb/c, mouse, spinal cord, 75 mg/kg PO, Spinal Cord to plasma AUC, read-out: Partition Coefficient): ~0.05
- Kp ([2]; Balb/c, mouse, spleen / plasma, 75 mg/kg PO, Spleen to plasma AUC, read-out: Partition Coefficient): 0.891
- Kp ([2]; Balb/c, mouse, thymus / plasma, 75 mg/kg PO, Thymus to plasma AUC, read-out: Partition Coefficient): 0.652
- Kp ([2]; Balb/c, mouse, tumor / plasma, 75 mg/kg PO, Tumor to plasma AUC, read-out: Partition Coefficient): 0.75
- Kp ([2]; Balb/c, mouse, tumor, 75 mg/kg PO, CT26 tumor, read-out: Tumor exposure relative to plasma): ~0.75
- Cmax ([2]; Balb/c, mouse, 75 mg/kg PO-ext (tissue distribution study), plasma, read-out: Cmax): 14100 ng/mL
- AUC(0-inf) [2, 5]: 39500 ng·h/mL
- half-life [2, 5]: 105 min
- AUC(0-t) ([2]; Balb/c, mouse, 75 mg/kg PO-ext, plasma, read-out: AUC0-360 (converted)): 39500 ng·h/mL
- Tmax ([2]; Balb/c, mouse, 75 mg/kg PO-ext, plasma, read-out: Tmax (converted)): 15 min
- AUC(0-inf) ([2]; Balb/c, mouse, 75 mg/kg PO, Bone Marrow): 133000 ng·h/mL
- AUC(0-t) ([2]; Balb/c, mouse, 75 mg/kg PO, Bone Marrow, 0-360 min, read-out: AUC0-t (converted)): 133000 ng·h/mL
- Cmax ([2]; Balb/c, mouse, 75 mg/kg PO, Bone Marrow, read-out: Cmax): 65800 ng/mL
- Tmax ([2]; Balb/c, mouse, 75 mg/kg PO, Bone Marrow, read-out: Tmax (converted)): 30 min
